The text below walks through data of PubChem BioAssay (NCI).

The structures appear in SMILES notation.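 Grown in 96-well plates, cells were treated for 48 hours with each compound at five concentrations. Insufficient inhibition: endpoint recorded as highest concentration tested. At the GI50, growth is halved. TGI marks complete inhibition of growth.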 A value given as a limit tells only on which side of the number the result lay.

Some test systems named below: COLO 205 colon; DU-145 prostate; HCT-15 colon; HOP-62 NSCLC; HT29 colon; NCI/ADR-RES ovarian; OVCAR-4 ovarian; OVCAR-8 ovarian; SK-MEL-2 melanoma; UO-31 renal.
Test in all cases: NCI tumour cell line growth inhibition, 48 h

Regarding `Clc1ccc(/C=C/c2nc(Cl)c(-c3ccc(Cl)cc3)c(Cl)n2)cc1`, the TGI with COLO 205 colon, in the experiment with DU-145 prostate, in the experiment on HCT-15 colon, in the experiment on HOP-62 NSCLC, in the experiment with HT29 colon and in the experiment on NCI/ADR-RES ovarian was > 100 µM in each case. For the same compound, the TGI with OVCAR-4 ovarian is > 100 µM; in the experiment with OVCAR-8 ovarian, > 100 µM; in the experiment on SK-MEL-2 melanoma, > 100 µM; in the experiment on UO-31 renal, 43.2 µM.

In the case of `Cc1cn(Cc2ccccc2CCl)c(=O)n(Cc2ccccc2CCl)c1=O`, the GI50 is 1.53 µM with COLO 205 colon; 1.93 µM in the experiment on DU-145 prostate; 1.96 µM in the experiment on HCT-15 colon; 2.31 µM with HOP-62 NSCLC; 2.04 µM in the experiment with HT29 colon; 2.22 µM in the experiment on NCI/ADR-RES ovarian. Also, the GI50 with OVCAR-4 ovarian is 1.98 µM; in the experiment on OVCAR-8 ovarian, 2.39 µM; with SK-MEL-2 melanoma, 1.32 µM; in the experiment with UO-31 renal it was 1.65 µM. The TGI in the experiment on COLO 205 colon is 3.54 µM; in the experiment with DU-145 prostate, 3.68 µM; in the experiment with HCT-15 colon, 4.43 µM; with HOP-62 NSCLC it was 4.13 µM; with HT29 colon, 5.69 µM; in the experiment on NCI/ADR-RES ovarian, 6.36 µM. Further, the TGI with OVCAR-4 ovarian is 4.83 µM; in the experiment on OVCAR-8 ovarian, 5.69 µM; in the experiment on SK-MEL-2 melanoma, 4.29 µM; in the experiment on UO-31 renal, 3.17 µM.

Consider `COc1cc(NC(=O)c2cc(O)c(C/C=C(\C)CCC=C(C)C)c(O)c2)cc2c1O[C@]1(C)CC[C@@H](O)C(C)(C)[C@H]1C2`, for which the GI50 with COLO 205 colon was 2.22 µM; in the experiment on DU-145 prostate, 2.25 µM; in the experiment on HCT-15 colon it was 2.09 µM; in the experiment on HOP-62 NSCLC, 1.58 µM; in the experiment with HT29 colon, 1.62 µM; in the experiment on NCI/ADR-RES ovarian, 7.89 µM. In addition, the GI50 in the experiment on OVCAR-4 ovarian was 2.57 µM; in the experiment with OVCAR-8 ovarian it was 2.58 µM; in the experiment with SK-MEL-2 melanoma, 1.06 µM; in the experiment on UO-31 renal it was 2.7 µM. In addition, the TGI amounted to 6.72 µM in the experiment with COLO 205 colon; 12.2 µM with DU-145 prostate; 7.53 µM in the experiment on HCT-15 colon; 8.22 µM in the experiment with HOP-62 NSCLC; 5.79 µM with HT29 colon; 44.5 µM in the experiment with NCI/ADR-RES ovarian. Further, the TGI in the experiment with OVCAR-4 ovarian came to 12.7 µM; with OVCAR-8 ovarian, 14.7 µM; in the experiment on SK-MEL-2 melanoma it was 3.43 µM; in the experiment with UO-31 renal it was 9.71 µM.

Consider `CC1=NN(c2ccccc2)C(=O)C1N=Nc1ccc(S(N)(=O)=O)cc1` (stereo not given), for which the TGI in the experiment with COLO 205 colon, with DU-145 prostate, in the experiment with HCT-15 colon, with HOP-62 NSCLC, with HT29 colon and in the experiment with NCI/ADR-RES ovarian was > 100 µM in each case. Also, the TGI with OVCAR-4 ovarian, with OVCAR-8 ovarian, with SK-MEL-2 melanoma and in the experiment with UO-31 renal was > 100 µM in each case.

For `COC1OC(C(C)O)C2OC(C)(C)OC12` (stereo not given), the TGI in the experiment on COLO 205 colon, in the experiment with DU-145 prostate, with HCT-15 colon, in the experiment with HOP-62 NSCLC, in the experiment with HT29 colon and in the experiment on NCI/ADR-RES ovarian was > 100 µM each time. Also, the TGI with OVCAR-4 ovarian, in the experiment with OVCAR-8 ovarian, with SK-MEL-2 melanoma and in the experiment with UO-31 renal was > 100 µM in each case.

With `Cc1ccc(-c2c3c(N)c4c(nc3nc3c2c(C)nn3-c2ccccc2)CCC4)cc1`, the GI50 in the experiment on COLO 205 colon is 1.69 µM; in the experiment with DU-145 prostate it was 2.21 µM; with HCT-15 colon, 2.11 µM; in the experiment on HOP-62 NSCLC it was 2.7 µM; in the experiment with HT29 colon, 5.07 µM; in the experiment on NCI/ADR-RES ovarian it was 8.23 µM. Besides, the GI50 with OVCAR-4 ovarian is 2.98 µM; in the experiment with OVCAR-8 ovarian, 2.32 µM; in the experiment with SK-MEL-2 melanoma, 21.1 µM; with UO-31 renal, 1.87 µM. In addition, the TGI with COLO 205 colon was 3.6 µM; in the experiment on DU-145 prostate, 4.68 µM; in the experiment on HCT-15 colon it was 5.15 µM; in the experiment on HOP-62 NSCLC it was 8.23 µM; in the experiment on HT29 colon it was 10.9 µM; in the experiment on NCI/ADR-RES ovarian it was 32.3 µM. The TGI was found to be 11.9 µM in the experiment with OVCAR-4 ovarian, 5.89 µM in the experiment with OVCAR-8 ovarian, 42.6 µM in the experiment with SK-MEL-2 melanoma and 3.94 µM with UO-31 renal.

On to `CCCCN(CCCC)CCC(O)c1cc2ccc(C(F)(F)F)cc2c2cc(C(F)(F)F)ccc12` (stereo not given), for which the GI50 in the experiment with COLO 205 colon was 1.62 µM; in the experiment on DU-145 prostate it was 6.15 µM; in the experiment with HCT-15 colon, 2.15 µM; with HOP-62 NSCLC, 2.2 µM; with HT29 colon, 2 µM; in the experiment on NCI/ADR-RES ovarian, 2.69 µM. The GI50 was 3.5 µM in the experiment on OVCAR-4 ovarian, 1.92 µM with OVCAR-8 ovarian, 2.53 µM in the experiment with SK-MEL-2 melanoma and 1.89 µM in the experiment with UO-31 renal. Moreover, the TGI in the experiment on COLO 205 colon was 3.33 µM; with DU-145 prostate, 18.7 µM; in the experiment with HCT-15 colon, 7.29 µM; in the experiment with HOP-62 NSCLC it was 5.68 µM; in the experiment with HT29 colon it was 4.41 µM; in the experiment on NCI/ADR-RES ovarian, 11.9 µM. Also, the TGI in the experiment on OVCAR-4 ovarian was 13.1 µM; in the experiment with OVCAR-8 ovarian it was 4.25 µM; in the experiment on SK-MEL-2 melanoma it was 4.51 µM; in the experiment with UO-31 renal, 12.4 µM.

For `CN(C)CC1=Nc2cccc3cccc(c23)N1`, the TGI with COLO 205 colon was 7.11 µM; in the experiment with DU-145 prostate, 30.9 µM; in the experiment on HCT-15 colon, 77.5 µM; in the experiment with HOP-62 NSCLC it was > 100 µM; with HT29 colon, 53.7 µM; in the experiment with NCI/ADR-RES ovarian, > 100 µM. Further, the TGI was 26.6 µM with OVCAR-4 ovarian, > 100 µM with OVCAR-8 ovarian, 35.5 µM in the experiment on SK-MEL-2 melanoma and 23 µM in the experiment on UO-31 renal.

Regarding `O=C1OC(OC/C(Br)=C(/Br)COC2OC(=O)C(Cl)=C2Cl)C(Cl)=C1Cl` (stereo not given), the TGI is 10.4 µM with COLO 205 colon; 30.6 µM in the experiment on DU-145 prostate; 27.1 µM in the experiment on HCT-15 colon; 28.8 µM with HOP-62 NSCLC; 28.4 µM in the experiment with HT29 colon; 36.9 µM in the experiment on NCI/ADR-RES ovarian. The TGI in the experiment with OVCAR-4 ovarian was 20.1 µM; in the experiment on OVCAR-8 ovarian, > 58 µM; in the experiment on SK-MEL-2 melanoma, 44.8 µM; in the experiment with UO-31 renal it was 15.6 µM.

Take `CN(CCCN(C)CCC1CCCCC1)CCC1CCCCC1`: the GI50 with COLO 205 colon is 1.77 µM; with DU-145 prostate, 8.51 µM; in the experiment with HCT-15 colon, 2.02 µM; in the experiment on HOP-62 NSCLC it was 5.3 µM; in the experiment with HT29 colon, 0.475 µM; with NCI/ADR-RES ovarian, 6.6 µM. For the same compound, the GI50 with OVCAR-4 ovarian was 3.35 µM; with OVCAR-8 ovarian it was 4.85 µM; with SK-MEL-2 melanoma, 2.19 µM; in the experiment on UO-31 renal it was 1.58 µM. The TGI stood at 3.27 µM with COLO 205 colon; 20.8 µM in the experiment with DU-145 prostate; 8.21 µM with HCT-15 colon; 17.7 µM in the experiment with HOP-62 NSCLC; 2.37 µM with HT29 colon; 20.1 µM in the experiment with NCI/ADR-RES ovarian. Moreover, the TGI was determined as 14.6 µM in the experiment on OVCAR-4 ovarian, 18.4 µM in the experiment on OVCAR-8 ovarian, 4.84 µM with SK-MEL-2 melanoma and 14.4 µM with UO-31 renal.
